As a reminder, the IC50 is the midpoint of a concentration-inhibition curve. Read a low IC50 as higher potency.

T1 sequence (P41594 21-942 isoform P41594-3 limits assumed): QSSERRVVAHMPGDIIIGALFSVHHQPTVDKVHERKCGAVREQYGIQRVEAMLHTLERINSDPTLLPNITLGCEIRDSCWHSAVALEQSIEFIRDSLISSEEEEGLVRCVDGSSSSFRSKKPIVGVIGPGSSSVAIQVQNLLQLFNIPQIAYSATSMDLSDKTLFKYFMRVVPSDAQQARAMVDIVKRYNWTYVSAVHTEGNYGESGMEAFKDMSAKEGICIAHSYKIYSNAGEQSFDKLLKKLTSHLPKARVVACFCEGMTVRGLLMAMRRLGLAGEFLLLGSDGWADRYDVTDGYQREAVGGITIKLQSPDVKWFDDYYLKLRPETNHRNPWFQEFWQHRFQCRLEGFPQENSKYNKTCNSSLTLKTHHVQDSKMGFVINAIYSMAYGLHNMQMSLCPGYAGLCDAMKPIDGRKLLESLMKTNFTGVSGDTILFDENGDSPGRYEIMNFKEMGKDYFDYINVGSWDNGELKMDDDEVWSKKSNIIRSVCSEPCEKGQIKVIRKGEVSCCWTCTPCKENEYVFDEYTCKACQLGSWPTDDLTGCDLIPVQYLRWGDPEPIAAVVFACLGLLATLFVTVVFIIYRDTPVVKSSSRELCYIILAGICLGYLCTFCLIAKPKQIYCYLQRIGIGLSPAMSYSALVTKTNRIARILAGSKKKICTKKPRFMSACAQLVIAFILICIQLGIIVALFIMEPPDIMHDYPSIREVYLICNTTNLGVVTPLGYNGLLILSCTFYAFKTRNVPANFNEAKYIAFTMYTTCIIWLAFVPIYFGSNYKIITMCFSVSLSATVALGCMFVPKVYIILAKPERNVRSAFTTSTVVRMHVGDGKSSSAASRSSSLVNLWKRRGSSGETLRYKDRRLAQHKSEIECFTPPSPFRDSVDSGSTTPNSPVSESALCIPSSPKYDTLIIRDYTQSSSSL

The experiment addresses T1, human mGluR5d (Homo sapiens, UniProt P41594).
T1 construct: expressed in transfected cells; host or cells: GHEK (human embryonic kidney cells expressing glutamate transporter) for the IP3 assay
Kind of experiment: Functional assessment of mGluR5 antagonism in cell lines expressing mGluR5d (FLIPR [Ca2+]i mobilization and/or IP3 turnover; not stated which assay gave the values). It is filed as cell-based. The note with it: assays described herein (FLIPR / IP3), cells expressing human mGluR5d. The source says: The pharmacological properties of the compounds of the invention can be analyzed using standard assays for functional activity. Examples of glutamate receptor assays are well known in the art as described in for example Aramori et al., Neuron 8:757 (1992), Tanabe et al., Neuron 8:169 (1992), Miller et al., J. Neuroscience 15: 6103 (1995), Balazs, et al., J. Neurochemistry 69:151 (1997). The methodology described in these publications is incorporated herein by reference. Conveniently, the compounds of the invention can be studied by means of an assay that measures the mobilization of intracellular calcium, [Ca^2+]i in cells expressing mGluR5.
Intracellular calcium mobilization was measured by detecting changes in fluorescence of cells loaded with the fluorescent indicator fluo-3. Fluorescent signals were measured using the FLIPR system (Molecular Devices). A two addition experiment was used that could detect compounds that either activate or antagonize the receptor.
For FLIPR analysis, cells expressing human mGluR5d were seeded on collagen coated clear bottom 96-well plates with black sides and analysis of [Ca^2+]i mobilization was done 24 hours after seeding.
FLIPR experiments were done using a laser setting of 0.800 W and a 0.4 second CCD camera shutter speed. Each FLIPR experiment was initiated with 160 μL of buffer present in each well of the cell plate. After each addition of the compound, the fluorescence signal was sampled 50 times at 1 second intervals followed by 3 samples at 5 second intervals. Responses were measured as the peak height of the response within the sample period.
EC50 and IC50 determinations were made from data obtained from 8-point concentration response curves (CRC) performed in duplicate. Agonist CRC were generated by scaling all responses to the maximal response observed for the plate. Antagonist block of the agonist challenge was normalized to the average response of the agonist challenge in 14 control wells on the same plate.
We have validated a secondary functional assay for mGluR5d based on Inositol Phosphate (IP3) turnover. IP3 accumulation is measured as an index of receptor mediated phospholipase C turnover. GHEK cells stably expressing the human mGluR5d receptors were incubated with [3H] myo-inositol overnight, washed three times in HEPES buffered saline and pre-incubated for 10 minutes with 10 mM LiCl. Compounds (agonists) were added and incubated for 30 minutes at 37° C. Antagonist activity was determined by pre-incubating test compounds for 15 minutes, then incubating in the presence of glutamate (80 μM) or DHPG (30 μM) for 30 minutes. Reactions were terminated by the addition of perchloric acid (5%). Samples were collected and neutralized, and inositol phosphates were separated using Gravity-Fed Ion-Exchange Columns.
Functional Assessment of mGluR5 Antagonism in Cell Lines Expressing mGluR5D
The properties of the compounds of the invention can be analyzed using standard assays for pharmacological activity. Examples of glutamate receptor assays are well known in the art as described in for example Aramori et al., Neuron 8:757 (1992), Tanabe et al., Neuron 8:169 (1992), Miller et al., J. Neuroscience 15: 6103 (1995), Balazs, et al., J. Neurochemistry 69:151 (1997). The methodology described in these publications is incorporated herein by reference. […]
Take `CCOC(=O)N1CCN(C(=O)/C=C/c2cccc(Cl)c2)CC1` [Example 11.4, ethyl 4-[(2E)-3-(3-chloro-phenyl)prop-2-enoyl]piperazine-1-carboxylate]: the IC50 came out at 1110 nM. In other words, the single-digit micromolar range.
With `O=C(/C=C/c1cccc(Cl)c1)N1CCN(c2ncccc2[N+](=O)[O-])CC1` [Example 11.6, 1-[(2E)-3-(3-chlorophenyl)prop-2-enoyl]-4-(3-nitro-pyridin-2-yl)piperazine] the figure was 10 nM; with `C[C@@H]1CN(c2ncccc2C#N)CCN1C(=O)/C=C/c1cccc(Br)c1` [Example 11.22, 2-{(3R)-4-[(2E)-3-(3-bromo-phenyl)prop-2-enoyl]-3-methylpiperazin-1-yl}nicotinonitrile], 33 nM; with `C[C@@H]1CN(c2ncc(F)cc2C#N)CCN1C(=O)/C=C/c1cccc(OC(F)F)c1` [Example 11.28, 2-((3R)-4-{(2E)-3-[3-(difluoromethoxy)phenyl]prop-2-enoyl}-3-methylpiperazin-1-yl)-5-fluoronicotinonitrile], 293 nM.
`COCC1CN(c2nccnc2C#N)CCN1C(=O)/C=C/c1cccc(Cl)c1` (centres unmarked) [Example 29.1, 3-[4-[(2E)-3-(3-chlorophenyl)prop-2-enoyl]-3-(methoxymethyl)piperazin-1-yl]pyrazine-2-carbonitrile] returned a half-inhibitory concentration (IC50) of 384 nM.

(Values after patent publication US20070049578A1, “Cinnamamide compounds as metabotropic glutamate receptor antagonists” (AstraZeneca AB, priority 2005, published 2007).)
